Here are results for one compound from BindingDB's records for doi:10.1021/jm970856n (Novartis Pharma, 1998).

The experiment has as its target T1, SHC-transforming protein 2 (Homo sapiens, UniProt P98077).
T1 sequence (P98077 whole entry): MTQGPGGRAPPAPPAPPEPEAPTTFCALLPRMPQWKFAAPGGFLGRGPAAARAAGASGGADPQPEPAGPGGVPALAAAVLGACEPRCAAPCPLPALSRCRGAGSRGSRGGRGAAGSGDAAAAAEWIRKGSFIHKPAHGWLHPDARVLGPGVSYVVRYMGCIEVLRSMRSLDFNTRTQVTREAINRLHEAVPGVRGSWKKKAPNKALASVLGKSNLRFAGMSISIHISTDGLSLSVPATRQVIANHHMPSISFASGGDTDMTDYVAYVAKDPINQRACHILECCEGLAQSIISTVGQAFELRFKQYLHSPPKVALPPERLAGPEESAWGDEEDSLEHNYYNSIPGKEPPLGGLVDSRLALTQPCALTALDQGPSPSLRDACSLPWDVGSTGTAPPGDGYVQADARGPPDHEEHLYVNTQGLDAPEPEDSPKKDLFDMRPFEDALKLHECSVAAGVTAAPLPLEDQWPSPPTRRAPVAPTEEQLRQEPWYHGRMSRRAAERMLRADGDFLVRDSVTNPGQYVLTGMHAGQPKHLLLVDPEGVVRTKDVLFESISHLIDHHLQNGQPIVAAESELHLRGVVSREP
The experiment can be described thus: Inhibition of binding to SH2 domain of SHC-PTB.

Each structure is given as a SMILES string.

As for `NC(=O)CC(NC(=O)C1(NC(=O)C(N)Cc2ccc(OP(=O)(O)O)c(N)c2)CCCCC1)C(N)=O` (stereo unspecified) [Phosphoric acid mono-(2-amino-4-{2-amino-2-[1-(1,2-dicarbamoyl-ethylcarbamoyl)-cyclohexylcarbamoyl]-ethyl}-phenyl) ester], the IC50 (usually the concentration that gives 50% inhibition) was > 5 µM.
